Drawing on ChEMBL document CHEMBL3875186, “Design, synthesis, and characterization of rhein analogs as novel inhibitors of scavenger receptor A” (Bioorg Med Chem Lett, 2017), this text covers inhibition for three compounds.

Experiment [1] deals with T1, Macrophage scavenger receptor types I and II (Mus musculus) (UniProt P30204).
T1 sequence (whole entry): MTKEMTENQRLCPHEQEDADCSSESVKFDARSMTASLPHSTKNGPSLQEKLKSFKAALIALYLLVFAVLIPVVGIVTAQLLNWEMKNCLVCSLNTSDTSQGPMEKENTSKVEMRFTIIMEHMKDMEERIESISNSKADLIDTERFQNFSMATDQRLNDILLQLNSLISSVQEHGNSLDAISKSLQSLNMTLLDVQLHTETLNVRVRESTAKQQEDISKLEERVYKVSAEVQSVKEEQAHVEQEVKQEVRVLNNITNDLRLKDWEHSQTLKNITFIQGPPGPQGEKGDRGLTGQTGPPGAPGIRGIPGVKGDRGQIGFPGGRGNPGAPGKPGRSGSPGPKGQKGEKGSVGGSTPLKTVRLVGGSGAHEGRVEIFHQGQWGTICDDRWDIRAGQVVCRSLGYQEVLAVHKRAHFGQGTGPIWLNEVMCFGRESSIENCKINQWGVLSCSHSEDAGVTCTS
As to the kind of experiment: Antagonist activity at mouse recombinant SRA extracellular domain expressed in baculovirus infected Sf21 insect cells assessed as inhibition of protein-induced reduction of IL2 gene promoter activation in anti CD3/CD28 antibody activated wild type C57BL/6 mouse B3Z T-cells at 50 uM after 5 hrs by beta-galactosidase reporter gene assay.

Experiment [2] addresses T1, Macrophage scavenger receptor types I and II (Mus musculus). As to the kind of experiment: Antagonist activity at SRA in RM1-OVA tumor bearing wild type C57BL/6 mouse derived CD11bpositiveLy6ChighLy6Gnegative myeloid-derived suppressive cells co-cultured with splenocytes assessed as reduction in protein-mediated inhibition of anti CD3/CD28 antibody-induced T-cell activation by measuring IL-2 secretion at 10 to 20 uM pretreated for 2 hrs followed by splenocytes addition measured after 56 hrs by ELISA.

Experiment [3] has the same target. As to the kind of experiment: Antagonist activity at SRA in RM1-OVA tumor bearing wild type C57BL/6 mouse derived CD11bpositiveLy6ChighLy6Gnegative myeloid-derived suppressive cells co-cultured with splenocytes assessed as reduction in protein-mediated inhibition of anti CD3/CD28 antibody-induced T-cell proliferation at 10 to 20 uM preincubated for 2 hrs followed by splenocytes addition measured after 72 hrs by [3H]-thymidine incorporation assay. For orientation: Dividing cells build labelled thymidine or BrdU into new DNA.

Experiment [4] shares this target. As to the kind of experiment: Antagonist activity at SRA in RM1-OVA tumor bearing wild type C57BL/6 mouse derived CD11bpositiveLy6ChighLy6Gnegative myeloid-derived suppressive cells co-cultured with splenocytes assessed as reduction in protein-mediated inhibition of anti CD3/CD28 antibody-induced T-cell activation by measuring IL-2 secretion pretreated for 2 hrs followed by splenocytes addition measured after 56 hrs by ELISA. A general note: An ELISA detects its analyte on a solid surface through an enzyme-linked reagent.

Calls of active or inactive are those of the source. The calls are words filed in the database; no cut-off is given here.

In the case of `O=C(O)c1ccc2c(c1)C(=O)c1cccc(O)c1C2=O`, the inhibition result in experiment [1], in experiment [2] and in experiment [3] was “Active” in each case.
Regarding `O=C(O)c1cc(O)c2c(c1)C(=O)c1cccc(O)c1C2=O`, the inhibition entry in experiment [3] is “Active”.
In the case of `O=C1c2cccc(O)c2C(=O)c2c(O)cccc21`, the inhibition entry in experiment [1] and in experiment [3] was “Active” in each case. The inhibition entry in experiment [4] was “Dose-dependent effect”.
